Experimental data reported in US5236900A, “Anti-fungal agents” (Schering Corporation, priority 1991, dated 1993).

Legend:
[1] = tested on: Sensitive strains: Candida albicans C141, Candida sp. C2, Candida sp. C109, Candida parapsilosis C67, Candida tropicalis C112, Torulopsis glabrata C95, Candida …; assay: Microtiter minimum inhibitory concentration (MIC) test, sensitive strains; type: cell-based, Candida spp., Sacchararomyces; details: geometric mean of MICs against sensitive strains; YNB pH 5.4, 37° C., 48 hours
Experimental: (§1) In vitro anti-fungal activity was determined in microtiter minimum inhibitory concentration (MIC) tests using Yeast Nitrogen Broth (YNB without amino acids, Difco., Detroit, Mich.) at pH 5.4. Yeasts were grown overnight in Sabouraud Dextrose Broth at 28° C. with shaking, and concentrations adjusted in sterile saline using a spectrophoptometer at 540 mμ. Compounds were dissolved in various vehicles and diluted in media to twice the final concentrations. The Cetus Pro/Pette system was used to serially dilute 50 μl in round bottom 96 well plates (Falcon, Lincoln Park, N.J.). The turbidometrically adjusted yeast suspensions were diluted 1:3,000 in YNB. These dilutions when added to the wells, produced a final inoculum of 3×10^3 /ml. Plates were incubated at 37° C. for 48 hours. MICs were defined as the lowest concentrations of compound that prevented visible growth. MICs were taken against the following organisms and expressed in the table above as the geometric mean.
Candida pseudotropicalis C 967
Candida guillermondii C137
Sacchararomyces mutant C147

[2] = tested on: Resistant strains: Candida albicans C79, C6, C8, C31, C54, C70, C104, C138, C140; Candida stellatoidea C45; assay: Microtiter minimum inhibitory concentration (MIC) test, resistant strains; type: cell-based; details: geometric mean of MICs against resistant strains; YNB pH 5.4, 37° C., 48 hours
Experimental: as §1

## 6'-Dodecylamido-5-N-L-Valinyl-UPOC [Compound 3]
[1]
  MIC-S: 26 µg/mL
[2]
  MIC-R: 17 µg/mL
